Assay results taken from patent US11987646B2, “Immunomodulatory peptides” (Leidos, Inc., priority 2020, dated 2024).

Legend:
[1] = system: MC38 (colon carcinoma) cells; assay: MC38 tumor model; format: in vivo, mice; details: intra-tumorally 2× a week, 50 μg dose, normalized to day 0, Mann-Whitney test, P value 0.0499
Experimental: Mice were injected subcutaneously with 1×10^6 MC38 (colon carcinoma) cells and tumor volumes were measured on day 2, 5, 9, 12, and 16 (end of study) and normalized to day 0 values for each animal. When the mean tumor size reached approximately 80-120 mm^3, mice were randomized and treatment was started. Peptides were tested in an MC38 tumor model. FoLD01 peptide was administered intra-tumorally 2× a week (50 μg dose). Monoclonal antibodies were administered intraperitoneally 2× a week (5 mg/kg (anti-CTLA4) and 10 mg/kg (anti-PD1) dose). Statistical test used: Unpaired, non-parametric, two-tailed Mann-Whitney test. Control used: intra-tumor injection of DMSO diluted in PBS (for FoLD01 injected intra-tumorally).

PD1 = biological target: T1, PD1 (Homo sapiens, UniProt Q15116); assay: PATHHUNTER checkpoint signaling assay (PD1 activation / SHP1 recruitment); format: cell-based; details: Jurkat cells expressing PD1 and SHP1 co-incubated with PDL1-presenting U2OS cells, 2 h RT; peptides at 20 μM and 100 μM, in duplicate; FIG. 1
T1 construct: host or cells: Jurkat cells (PD1 and SHP1 EFC fusions), co-cultured with PDL1-presenting U2OS cells
Experimental: Peptides were tested for their ability to inhibit the binding of PDL1 to PD1 using PATHHUNTER® checkpoint signaling assays (DiscoverX).
Jurkat cells expressing PD1 and SHP1 proteins, each fused to a fragment of enzyme fragment complementation (EFC) system, were co-incubated with PDL1-presenting U2OS cells. […] Inhibitory peptides or antibodies added to the culture would reduce the light signal.
Cells in co-culture were incubated at room temperature (RT) for 2 h (PD1 assay). The assay signal was generated using the PATHHUNTER® Bioassay Detection kit. FoLD01 (SEQ ID NO:1), LD10 (SEQ ID NO:5), and LD12 (SEQ ID NO:6) peptides were tested in duplicate at two concentrations, 20 μM and 100 μM. Peptides were dissolved in water or DMSO and diluted in assay buffer.
Microplates were read following signal generation using a PerkinElmer ENVISION™ instrument for chemiluminescent signal detection. The percentage of inhibition efficacy was calculated using the following formula, in which “RLU” means relative light units: […]

[2] = system: IFNγ-secreting antigen-specific CD8+ T cells; assay: AdPyCS mouse model, IFNγ ELISPOT of spleen cells; format: in vivo; details: mice immunized i.m. with AdPyCSP, peptide subcutaneously 1 μg, 10 μg; spleens ten days post-injection; relative to AdPyCS-only; one-way ANOVA; FIG. 2
Experimental: Groups of five mice were immunized intramuscularly with a recombinant replication defective adenovirus expressing the Plasmodium yoelli circumsporozoite protein (AdPyCSP) and then treated subcutaneously with peptides LD10da ([…], in which the first amino acid is a D-amino acid, 1 μg), FoLD01 (1 μg, 10 μg), or an anti-PD1 monoclonal antibody (10 μg). Ten days post-injection, mice were euthanized and individual spleens removed. The number of IFNγ-secreting antigen-specific CD8+ T cells were determined using an ELISPOT assay (FIG. 2).

[3] = system: Pan02 (pancreatic adenocarcinoma) cells; assay: Pan02 tumor model; format: in vivo, mice; details: intra-tumorally 2× a week, 50 μg dose, normalized to day 0, Mann-Whitney test
Experimental: Mice were injected subcutaneously with 3×10^6 Pan02 (pancreatic adenocarcinoma) cells in the right rear flank. Tumor volumes were measured at least twice weekly in two dimensions using a caliper. When the mean tumor size reached approximately 80-120 mm^3, mice were randomized and treatment was started. FoLD04 was administered intra-tumorally 2× a week (50 μg dose). Monoclonal antibodies were administered intraperitoneally 2× a week (5 mg/kg (anti-CTLA4) and 10 mg/kg (anti-PD1) dose).
Tumor volumes were measured on day 4, 7, 11, 14, 18, 21, 25 and 27 (end of study) and normalized to day 0 values for each animal. Statistical test used: Unpaired, non-parametric, two-tailed Mann-Whitney test.
Control used: intra-tumor injection of DMSO diluted in PBS (for FoLD04 injected intra-tumorally).

T1 sequence (Q15116 25-288): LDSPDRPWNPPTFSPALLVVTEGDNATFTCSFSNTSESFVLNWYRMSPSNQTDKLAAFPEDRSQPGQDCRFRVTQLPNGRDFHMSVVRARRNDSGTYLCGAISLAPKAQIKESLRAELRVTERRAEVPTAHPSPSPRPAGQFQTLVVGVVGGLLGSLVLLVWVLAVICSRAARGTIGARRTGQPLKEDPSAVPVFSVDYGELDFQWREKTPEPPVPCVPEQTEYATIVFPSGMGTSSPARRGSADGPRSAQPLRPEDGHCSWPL

Substance	tumor volume relative to intra-tumoral DMSO/PBS control [1]	inhibition of PD1-PDL1 interaction (percentage of inhibition efficacy) (PD1)	number of IFNγ-secreting antigen-specific CD8+ T cells [2]	tumor volume relative to DMSO/PBS IT control [3]
FoLD01: peptide, amino acid sequence STNQVSALRVNILFPLSQ (SEQ ID NO:1) (FoLD01 peptide)	significantly decreased tumor volume	inhibited PD1-PDL1 interaction to a greater extent than peptides LD10 and LD12	enhances the number of antigen-specific CD8+ T cells relative to stimulation with antigen only	
FoLD04: peptide, amino acid sequence QVSALRVNILF (SEQ ID NO:4) (listed as Fusarium oxysporum)				significantly decreased tumor volume
